Data on 20 molecules can be found in PMC8151276, “An Integrated Approach toward NanoBRET Tracers for Analysis of GPCR Ligand Engagement” (Molecules, 2021).

The target in the assay is T1, HTR2B (Homo sapiens, UniProt P41595).
T1 construct: purchased Promega (in-house HiBiT-GPCR construct library, NanoBRET)
Kind of assay: NanoBRET screen HiBiT-HTR2B in HEK293. It is filed as binding. As to the method:
Each tracer candidate was screened across the entire library of HiBiT-GPCR constructs using NanoBRET as the detection modality. As depicted in Figure 4A, the specificity of interactions was evaluated through decrease in BRET due to competitive displacement of a bound tracer by excess parental compound. Each tracer was analyzed for binding to each HiBiT-GPCR fusion in the absence and in the presence of competing parental compound. Briefly, HEK293 cells were transfected with HiBiT-GPCR constructs diluted into promoterless DNA to reduce expression and maximize translocation to the cell surface. Each tracer candidate was then screened at concentrations of 1 μM and 0.1 μM across cells expressing these fusions. Cells were treated for 1.5 h with tracer either alone or in the presence of 20 μM competing parental compound (i.e., control). BRET was measured upon addition of purified LgBiT and subsequent complementation with HiBiT genetically fused to a GPCR. The specificity of interactions was assessed through a decrease in BRET signal due to competitive displacement of the bound tracer. To further gauge the robustness of these interactions, the fold response over the control (i.e., BRETtracer/BRETcontrol) was calculated. We chose a 1.5-fold response, which translates to ≥7-fold signal over noise as the minimal threshold required to score an interaction as positive.
HiBiT-GPCR DNA constructs were diluted in 10 mM Tris pH 8 to a final concentration of 0.01 μg/μL, arrayed in 96-well plates and stored at −20 °C. For transfection, HEK293 cells were suspended in Opti-MEM (without phenol red) supplemented with 2% fetal bovine serum (Seradigm) and 100 units/mL penicillin–streptomycin (Gibco) at a final concentration of 220,000 cells/mL and dispensed into white 96-well plates at 90 μL/well. Subsequent transfections and screens were carried using an Agilent Bravo Automated Liquid Handling Platform. First, the 96-well HiBiT DNA arrays were diluted 25-fold in Opti-MEM (without serum or phenol red) to a final concentration of 0.0004 μg/μL and 20 μL of the diluted DNAs were transferred into new 96-well plates. Next, promoterless carrier DNA (1 μg/μL) was diluted 25-fold (0.04 μg/μL) and then dispensed into the diluted arrays at 20 μL/well. Following brief mixing, Viafect transfection reagent (Promega) diluted 16-fold into Opti-MEM was dispensed into the plates at 40 μL/well. After mixing by pipetting, plates were incubated for 10 min on the pipetting station deck. The DNA-transfection reagent complexes were then added to plates containing cells. To facilitate the screen, 10 μL of DNA-transfection reagent complexes were added in duplicates to the top 4 and bottom 4 rows, resulting in two identical 48-well arrays per plate. Plates with transfected cells were incubated for 18–20 h at 37 °C/5% CO2. A screen of each tracer across the entire library using two different concentrations requires duplicate plates of transfected cells. Depending on the number of tracers being screened, transfections can be scaled up using the same ratios. The next day, for each tracer, four 20× screening solutions in tracer dilution buffer (Promega) were prepared: two duplicates at final concentration of 20 μM and two duplicates at a final concentration of 2 μM. […] The four resulting solutions were diluted 4-fold in Opti-MEM without serum or phenol red to generate 5× solutions (5 µM and 0.5 µM tracer +/− 100 μM competing compound). To screen the library, a BioTek MultiFlo FX liquid dispenser was used to dispense 22.5 µL of tracer solution to the top 4 rows and 22.5 µL tracer + competing compound solution to the 4 bottom rows. Plates were briefly mixed on an orbital shaker and incubated for 1.5 h at room temperature. […] Plates were briefly mixed on an orbital shaker and incubated for 15 min to allow complementation.
For orientation: In BRET a luciferase serves as donor, and the signal depends on an acceptor being close.

T1 sequence (P41595 whole entry): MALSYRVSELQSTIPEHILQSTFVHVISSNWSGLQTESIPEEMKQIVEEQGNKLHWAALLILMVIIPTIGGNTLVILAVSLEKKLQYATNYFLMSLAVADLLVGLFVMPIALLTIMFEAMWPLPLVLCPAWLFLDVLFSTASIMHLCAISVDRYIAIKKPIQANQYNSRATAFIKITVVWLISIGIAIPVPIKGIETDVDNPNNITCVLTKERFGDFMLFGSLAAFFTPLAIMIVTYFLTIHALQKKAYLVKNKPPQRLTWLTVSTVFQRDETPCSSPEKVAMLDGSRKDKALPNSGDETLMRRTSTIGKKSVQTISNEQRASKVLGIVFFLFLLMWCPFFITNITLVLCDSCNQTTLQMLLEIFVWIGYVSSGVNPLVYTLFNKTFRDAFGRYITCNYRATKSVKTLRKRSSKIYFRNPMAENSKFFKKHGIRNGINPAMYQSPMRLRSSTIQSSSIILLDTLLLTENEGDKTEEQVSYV

On to `O=C(CCc1ccc2n1[B-](F)(F)[N+]1=C(c3ccc[nH]3)C=CC1=C2)NCc1ccc(C(=O)NCCOCCC(=O)N[C@@H]2CC[C@@]3(O)[C@H]4Cc5ccc(O)c6c5[C@@]3(CCN4CC3CC3)[C@H]2O6)cc1` [Naltrexone-3-NB590], for which the “NanoBRET Fold Response” value by setting is: (HTR2B, tracer 0.1μM) 1.13; (HTR2B, tracer 1μM) 0.98.

For the molecule `O=C(CCOCCOCCOCCOCCNC(=O)CCc1ccc2n1[B-](F)(F)[N+]1=C(c3ccc[nH]3)C=CC1=C2)NCCCN1CCN(C2=Nc3cc(Cl)ccc3Nc3ccccc32)CC1` [Clozapine-a-2-NB590], the “NanoBRET Fold Response” value is listed as 1.08 (HTR2B, 0.1μM tracer) and 1.14 (HTR2B, 1μM tracer).

Consider `CCOC(=O)c1cc(C#N)c(N2CCC(C(=O)NS(=O)(=O)Cc3ccccc3/C=C/C(=O)NCCNC(=O)CCc3ccc4n3[B-](F)(F)[N+]3=C(c5ccc[nH]5)C=CC3=C4)CC2)nc1C` [AZD1283-1-NB590], for which the “NanoBRET Fold Response” value is, setting by setting: (HTR2B, 0.1μM) 1.31; (HTR2B, 1μM) 1.15.

On to `COc1ccc2[nH]c(-c3ccc(CNC(=O)CCOCCOCCOCCOCCNC(=O)CCc4ccc5n4[B-](F)(F)[N+]4=C(c6ccc[nH]6)C=CC4=C5)cc3)c(CCNC(C)=O)c2n1` [AzomelatoninICO9-2-NB590], for which the “NanoBRET Fold Response” value is, setting by setting: (0.1μM tracer) 0.81; (1μM tracer) 1.08.

Consider `CCCn1c(=O)c2[nH]c(-c3ccc(OCC(=O)NCCNC(=O)CCOCCNC(=O)c4ccc(CNC(=O)CCc5ccc6n5[B-](F)(F)[N+]5=C(c7ccc[nH]7)C=CC5=C6)cc4)cc3)nc2n(CCC)c1=O` [XAC-3-NB590], for which the “NanoBRET Fold Response” value is on record as 1.29 (HTR2B, tracer 0.1μM) and 0.78 (HTR2B, tracer 1μM).

As to `COc1ccccc1N1CCN(CCCCN2C(=O)c3ccc(CNC(=O)CCOCCNC(=O)c4ccc(CNC(=O)CCc5ccc6n5[B-](F)(F)[N+]5=C(c7ccc[nH]7)C=CC5=C6)cc4)cc3C2=O)CC1` [NAN-190-3-NB590], the “NanoBRET Fold Response” value is, setting by setting: (HTR2B, tracer 0.1μM) 0.92; (HTR2B, tracer 1μM) 0.80.

For `CN(CCC=C1c2ccccc2CCc2ccccc21)C(=O)CCOCCOCCOCCOCCNC(=O)CCc1ccc2n1[B-](F)(F)[N+]1=C(c3ccc[nH]3)C=CC1=C2` [Amitriptyline-e-2-NB590], the “NanoBRET Fold Response” value (tracer at 1μM) is reported as 1.02.

On to `O=C(CCc1ccc2n1[B-](F)(F)[N+]1=C(c3ccc[nH]3)C=CC1=C2)NCc1ccc(C(=O)NCCOCCOCCNCC(O)COc2cccc3ccccc23)cc1` (centres unmarked) [Propranolol-3-NB590], for which the “NanoBRET Fold Response” value was found to be 1.13 (HTR2B, 0.1μM) and 1.00 (HTR2B, 1μM).

With `COc1ccc2c(n1)c(CCNC(C)=O)cn2CCNC(=O)CCc1ccc2n1[B-](F)(F)[N+]1=C(c3ccc[nH]3)C=CC1=C2` [Azamelatonin-1-NB590], the “NanoBRET Fold Response” value came to 0.98 (0.1μM tracer) and 0.98 (1μM tracer).

For the molecule `O=C(CCOCCOCCOCCOCCNC(=O)CCc1ccc2n1[B-](F)(F)[N+]1=C(c3ccc[nH]3)C=CC1=C2)NCCCN1CCN(C2=Nc3ccccc3Oc3ccc(Cl)cc32)CC1` [Loxapine-a-2-NB590], the “NanoBRET Fold Response” value is, setting by setting: (HTR2B, tracer 0.1μM) 1.04; (HTR2B, tracer 1μM) 1.25.

Take `N#CN/C(=N\CCNC(=O)c1ccc(N)cc1)NCCCOc1cccc(CN2CCCCC2)c1` [Aminopotentidine (unmodified)]: the “NanoBRET Fold Response” value reads like this: (HTR2B, other tracers/Aminopotentidine (unmodified), 0.1μM) 1.03; (HTR2B, other tracers/Aminopotentidine (unmodified), 1μM) 0.97.

Regarding `COc1ccccc1N1CCN(CCCCN2C(=O)c3ccc(CNC(=O)CCOCCOCCOCCOCCNC(=O)CCc4ccc5n4[B-](F)(F)[N+]4=C(c6ccc[nH]6)C=CC4=C5)cc3C2=O)CC1` [NAN-190-2-NB590], for the setting “HTR2B, tracer 0.1μM”, the “NanoBRET Fold Response” value came out at 0.92.

Turning to `CC(C)N(CC[C@H](c1ccccc1)c1cc(CCNC(=O)c2ccc(CNC(=O)CCc3ccc4n3[B-](F)(F)[N+]3=C(c5ccc[nH]5)C=CC3=C4)cc2)ccc1O)C(C)C` [Tolterodine-BZ-NB590], the “NanoBRET Fold Response” value runs as follows: (HTR2B, tracer 0.1μM) 0.83; (HTR2B, tracer 1μM) 1.07.

In the case of `O=C(CCc1ccc2n1[B-](F)(F)[N+]1=C(c3ccc[nH]3)C=CC1=C2)NCCOCCOCCNC(=O)OCCOCCN1CCN(C2=Nc3ccccc3Sc3ccccc32)CC1` [Quetiapine-a-2-NB590], the “NanoBRET Fold Response” value is recorded as 1.51 (HTR2B, tracer 0.1μM) and 1.14 (HTR2B, tracer 1μM).

With `CC(C)N(CC[C@H](c1ccccc1)c1cc(CCNC(=O)CCOCCOCCOCCOCCNC(=O)CCc2ccc3n2[B-](F)(F)[N+]2=C(c4ccc[nH]4)C=CC2=C3)ccc1O)C(C)C` [Tolterodine-2-NB590], the “NanoBRET Fold Response” value runs as follows: (HTR2B, tracer 0.1μM) 0.68; (HTR2B, tracer 1μM) 0.81.

Take `CN(C)CCC=C1c2ccccc2CCc2ccc(C(=O)NCCNC(=O)CCOCCOCCOCCOCCNC(=O)CCc3ccc4n3[B-](F)(F)[N+]3=C(c5ccc[nH]5)C=CC3=C4)cc21` [Amitriptyline-a-2-NB590]: the “NanoBRET Fold Response” value is 0.98 (tracer at 0.1μM) and 1.09 (tracer at 1μM).

Consider `Cc1cc2c(s1)Nc1ccccc1N=C2N1CCN(CCCNC(=O)CCOCCOCCOCCOCCNC(=O)CCc2ccc3n2[B-](F)(F)[N+]2=C(c4ccc[nH]4)C=CC2=C3)CC1` [Olanzapine-a-2-NB590], for which the “NanoBRET Fold Response” value reads like this: (HTR2B, tracer 0.1μM) 1.12; (HTR2B, tracer 1μM) 1.36.

On to `N#CN=C(NCCCOc1cccc(CN2CCCCC2)c1)NCCNC(=O)CCOCCOCCOCCOCCNC(=O)CCc1ccc2n1[B-](F)(F)[N+]1=C(c3ccc[nH]3)C=CC1=C2` [Aminopotentidine-2-NB590], for which the “NanoBRET Fold Response” value is, setting by setting: (HTR2B, tracer 0.1μM) 0.90; (HTR2B, tracer 1μM) 0.91.

For `Cc1nc2n(c(=O)c1CCN1CCC(c3noc4cc(F)ccc34)CC1)CCCC2OC(=O)NCCOCCOCCOCCOCCNC(=O)CCc1ccc2n1[B-](F)(F)[N+]1=C(c3ccc[nH]3)C=CC1=C2` (centres unmarked) [Risperidone-2-NB590], the “NanoBRET Fold Response” value was 1.03 (HTR2B, tracer 0.1μM) and 1.32 (HTR2B, tracer 1μM).

In the case of `CN(C)CCC=C1c2ccccc2CCc2ccc(C(=O)NCCNC(=O)CCOCCOCCOCCOCCNC(=O)CCc3ccc4n3[B-](F)(F)[N+]3=C(c5ccc[nH]5)C=CC3=C4)cc21` [Amitriptyline-b-2-NB590], the “NanoBRET Fold Response” value is, setting by setting: (tracer at 0.1μM, listed as amitriptyline-b-2-NB590) 1.05; (tracer at 1μM, listed as amitriptyline-b-2-NB590) 0.74.
